Like-named read-outs stand apart in the source and are kept apart here. Ends that are not written are not given here. Peptide text beside a SMILES is read from it.
What was measured:
Mel-Ab cells = test: Melanogenesis inhibition test in Mel-Ab cells; format: cell-based, mouse
Description: (§1) B16F10 cells were cultured in DMEM that was supplemented with 10% (v/v) fetal bovine serum (FBS), 50 μg/mL streptomycin and 50 U/mL penicillin at 37 °C in 5% CO2. Mel-Ab cells were cultured in DMEM with 10% (v/v) FBS, 100 nM 12-O-tetradecanoylphorbol-13-acetate (TPA), 1 nM cholera toxin (CT), 50 μg/mL streptomycin and 50 U/mL penicillin at 37 °C in 5% CO2.
(§2) The effects of the inhibitors (peptides and arbutin) on melanin formation in Mel-Ab cells and B16F10 cells were evaluated. B16F10 cells (5 × 10^3 per well) were cultured in 96-well plates and incubated with the samples (1, 5, 10, 50 and 100 μM) in a complete medium that contained α-MSH for 4 days. Then, the medium was collected from each well and the optical densities were measured at 405 nm. Mel-Ab cells (5 × 10^4 per well) were cultured in 6-well plates and incubated with the samples (1, 5, 10, 50 and 100 μM) in the complete medium for 3 days. Next, the treated cells were then dissolved in 1 mL of 1 N NaOH at 100 °C for 30 min and centrifuged for 20 min at 16,000 g, after which the optical densities of the supernatants were measured at 400 nm.
The percentage of melanin content was calculated via following equation: % melanin content = (A/B) × 100 where A represents the optical density of the sample-treated group and B represents the optical density of the untreated control group. All the tests were conducted independently three times. Each experiment was performed in triplicate and the results were averaged.

[1] = Lipid peroxidation ferric thiocyanate assay (antioxidant activity); details: lipid peroxidation inhibition after 24 h, 50 °C, dark, peptide 250 μM; for antioxidant activity relative to the original peptide (enhancement): original peptide set to 1.0
Description: Linoleic acid and Tween 20 were mixed in 0.1 M sodium phosphate buffer (pH 7.0) to prepare a linoleic acid emulsion (50 mM). […] These reaction mixtures were tightly capped by septa in glass vials and kept at 50 °C for 30 h under dark conditions. To evaluate the antioxidant activity of the oligopeptides by the quantification of lipid peroxidation inhibition, the ferric thiocyanate assay was used with some modifications. An aliquot of the reaction mixture (25 µL) was withdrawn at intervals and mixed with 1.175 mL of 75% ethanol, 25 µL of 20 mM ferrous chloride in 3.5% HCl and 25 µL of 30% ammonium thiocyanate. The absorbance was measured at 500 nm after 3 min, which was when the color development by the ferric thiocyanate complex was maximal. Each experiment was conducted in triplicate and the results were averaged.

[2] = system: phosphorylation of CREB at serin-133; details: 100 µM, α-MSH-treated B16F10 cells
Description: For the Western blot analysis, B16F10 cells were seeded into 6-well plates. After 24 h, the cultured medium was replaced with serum-free DMEM and incubated for another 24 h. Then, the cells were treated with samples in new serum-free media and incubated for 0–360 min. Cells were lysed with RIPA buffer containing protease inhibitor cocktail and phosphatase inhibitor cocktail. Protein concentration was determined using the Bicinchoninic acid (BCA) protein assay kit (Thermo Scientific, Rockford, IL, USA). Protein (20 μg) samples were separated on 4–20% polyacrylamide gels and then transferred to polyvinylidene fluoride (PVDF) membranes (#1704156, Bio-Rad, Hercules, CA, USA), which were blocked with 5% nonfat dry milk in Tris buffered saline solution containing 0.1% Tween 20. The blots were incubated with the primary antibodies at 4 °C overnight. Membrane-bound primary antibodies were detected using HRP-conjugated secondary antibodies and chemiluminescent substrate. Digital images of the blotted membranes were obtained and analyzed using ChemiDoc XRS+ Systems with Image Lab Software (Version 5.1) (Bio-Rad). The relative protein expression of p-cAMP response element-binding protein (CREB) was normalized to that of CREB and glyceraldehyde 3-phosphate dehydrogenase (GAPDH).

mushroom tyrosinase = test: Mushroom tyrosinase inhibition test with L-DOPA as substrate; format: biochemical; details: for IC50: L-DOPA 2.5 mM, mushroom tyrosinase 100 µg/mL (428 U/mL), 25 °C, 10 min, read-out: IC50 (tyrosinase inhibitory activity); for effect on dopachrome formation (UV-Vis scanning): dopachrome at 475 nm, L-DOPA and mushroom tyrosinase
Description: A mushroom tyrosinase inhibition test was carried out with L-DOPA as a substrate. Two hundred fifty microliters of phosphate buffer (0.1 M, pH 6.8), 250 µL of 2.5 mM L-DOPA, 200 µL of water and 25 µL of oligopeptide in DMSO at various concentrations were mixed. The reaction mixture was incubated at 25 °C for 10 min after the addition of 25 µL of aqueous mushroom tyrosinase solution (100 µg/mL, 428 U/mL) and then the UV absorbance was measured at 475 nm. The following equation was used to calculate the percentage of mushroom tyrosinase inhibition: % Tyrosinase Inhibition = (1 − A/B) × 100 where A represents the absorbance at 475 nm of the reaction mixture that contained the inhibitor and B represents the absorbance at 475 nm of a reference reaction mixture that contained DMSO instead of the inhibitor. The concentration of half-maximal inhibitory activity (IC50) values were determined by measuring the tyrosinase inhibitory activity at various peptide concentrations (10, 50, 100, 250 and 500 µM). Each experiment was performed in triplicate and the results were averaged.

B16F10 cells = test: Melanogenesis inhibition test in α-MSH-stimulated B16F10 cells; format: cell-based
Description: as §1, §2
The percentage of melanin content was calculated via following equation: % melanin content = (A/B) × 100 where A represents the optical density of the sample-treated group and B represents the optical density of the untreated control group. […]

Molecule | reduction of melanin content (Mel-Ab cells; 100 µM, 3 days) [%] | antioxidant activity relative to the original peptide (enhancement) [1] | reduction of melanin content (Mel-Ab cells; 5 μM) [%] | suppression of phosphorylation of CREB ([2]; 10 min) [%] | suppression of phosphorylation of CREB ([2]; 180 min) [%] | tyrosinase inhibition mode (Lineweaver-Burk plot) (mushroom tyrosinase; Km values increase and Vmax values decrease with increasing peptide concentration) | IC50 (mushroom tyrosinase) [µM] | effect on dopachrome formation (UV-Vis scanning) (mushroom tyrosinase) | suppression of melanin production (B16F10 cells; 50 µM, B16F10 cells) | inhibition of melanin production (in words) (B16F10 cells; α-MSH treated B16F10 cells, various concentrations) | decrease of antioxidant activity relative to the original peptide [1]
MHIRL-NH2 [MHIRL, methionine-histidine-isoleucine-arginine-leucine amide] | 28 | – | – | – | – | – | – | – | – | – | –
Methionine-histidine-isoleucine-arginine amide [MHIR] | 57 | 1.3–1.8 times | 30 | 18 | 37 | mixed-mode of inhibition | 83 | sufficiently suppress dopachrome formation | up to 80% | – | –
CC[C@H](C)[C@H](NC(=O)[C@H](Cc1c[nH]cn1)NC(=O)[C@H](CCSC)NC(C)=O)C(=O)N[C@@H](CCCNC(=N)N)C(N)=O [Ac-MHIR] (Ac-MHIR-NH2) | – | – | – | – | – | – | – | – | – | barely inhibits melanin production | –
histidine-isoleucine-arginine-leucine amide [HIRL] | 33 | 1.3–1.8 times | – | – | – | – | 70 | sufficiently suppress dopachrome formation | – | – | more than 50%

— article PMC7698045, “Milk Protein-Derived Antioxidant Tetrapeptides as Potential Hypopigmenting Agents” (Antioxidants, 2020)
